Reference: patent US11820720B2, “3-(5-substituted-4-oxoquinazolin-3(4H)-yl)-3-deuteropiperidine-2,6-dione derivatives and compositions comprising and methods of using the same” (DeuteRx, LLC, priority 2013, dated 2023)

What was measured:
[1] = Pharmacokinetics after single oral gavage dose in female CB.17 SCID mice; type: in vivo; settings: for AUC, compound analyzed d+ / AUC, compound analyzed d− / AUC, compound analyzed h+ / AUC, compound analyzed h−: 15 mg/kg
Description: Female CB.17 SCID mice (8-12 weeks of age) were administered a single dose of protonated racemate (h-rac, 30 mg/kg), d− (15 mg/kg), or d+ (15 mg/kg) by oral gavage. Deuterated enantiomers (i.e., d− and d+) used in this study contain ˜10% of the corresponding protonated enantiomer. Blood was collected into potassium EDTA (K2EDTA) containers by terminal cardiac puncture under carbon dioxide anesthesia from N=3 per group per time point at 0.25, 0.5, 1, 2, 4, 8, and 24 h post-dose. Plasma was isolated, frozen, and stored until ready for analysis.
Samples were prepared for quantitative analysis by liquid-liquid extraction in methyl-t-butylether (MTBE) with ondansetron as internal standard (ISTD). MTBE was evaporated under nitrogen flow and samples were reconstituted in 1% acetic acid in water/acetonitrile (20/80). Analysis was performed by chiral LC/MS-MS on a Daicel ChiralPak IE-3 column using an isocratic LC method of 0.1% acetic acid in water and acetonitrile (20:80 v/v). ISTD-normalized peak areas for deuterated enantiomers d- and d+ were corrected from interference from naturally occurring isotopes of the protonated analytes. Concentrations were obtained by interpolation on standard curves prepared in mouse plasma using standard solutions of the analytes.
Data was plotted in Excel 2013 (Microsoft Corp, Redmond, WA) and analyzed within Excel using the PKSolver add-in (version 2.0, as described in Zhang Y. et al Comput. Methods Programs Biomed. 99 (2010), 306-314) to determine pharmacokinetic parameters including exposure (as area under the curve, AUC) and elimination half-life (t1/2).

[2] = In vitro stability in human plasma at 37° C. (enantiomerization, D/H exchange, degradation); type: in vitro ADME
Description: (§1) (+)- and (−)-3-(5-Amino-2-methyl-4-oxoquinazolin-3(4H)-yl)-piperidine-2,6-dione and rac-3-(5-amino-2-methyl-4-oxoquinazolin-3(4H)-yl)-(3-^2H)-piperidine-2,6-dione (87% deuterium content at the C3-position and no detectable deuterium at the C5-position, 50:50 racemic mixture of (+)- and (−)-deuterated enantiomers) were incubated in CD-1 mouse plasma (K3EDTA as anticoagulant) or human plasma (K3EDTA as anticoagulant) at 37° C. in duplicates. Aliquots were removed at t=0, 0.5, 1, 2, 6, 8, 24, 48, and 96 h.
(§2) Plasma proteins were precipitated by addition of acetonitrile containing internal standard (ISTD, tolbutamide) and the supernatants were analyzed semi-quantitatively by LC/MS-MS with elution on a chiral column (Daicel ChiralPak IE-3) for the separation of enantiomers (isocratic method of 20:80 v/v 0.1% acetic acid in water and acetonitrile). Peak areas for the deuterated enantiomers (+)- and (−)-3-(5-amino-2-methyl-4-oxoquinazolin-3(4H)-yl)-(3-^2H)-piperidine-2,6-dione were normalized to the ISTD and corrected for the isotopic peak of the corresponding protonated enantiomer, (+)- and (−)-3-(5-amino-2-methyl-4-oxoquinazolin-3(4H)-yl)-piperidine-2,6-dione respectively, if present. Corrected data were analyzed and plotted using Microsoft Excel 2013 (Microsoft Corp, Redmond, WA) and the Excel Solver.
(§3) Scheme 1 below illustrates the possible reactions in a solution of deuterated racemate. The deuterium in both enantiomers, d+ and d−, can be lost by D/H exchange to give both protonated enantiomers, h+ and h− with rate constants kD++, kD+−, kD−+, kD−−. At the same time, the protonated enantiomers h+ and h−, can exchange, with enantiomerization rate constants k+− and k−+. All four compounds can also degrade with potentially different degradation rate constants kh+d, kh−d, kd+d, kd−d.
(§4) Human and mouse plasma data were analyzed independently. Independent analyses of the data for h+ and h− were performed first and the average rate constants k+− and k−+ from these two fits were calculated and used as constants in the fitting of the stability data of the deuterated racemate. Calculated concentrations were obtained through numerical approximation of differential equations (1) and (2) for the stability studies of h+ and h− and equations (3) to (6) for the stability study of deuterated racemate (50:50 d+:d−) by the Euler method (equation (7)). The step between calculated time points was minimized in order to minimize the local error (proportional to the square of the step size) and the global error (proportional to the step size).
(§5) The average degradation rate constant obtained by fitting the data for h+ and h− was used in the fit of the stability data of the deuterated racemate. Data analysis was performed in Microsoft Excel 2013, using the Solver Generalized Reduced Gradient Nonlinear method with central derivatives to minimize the sum of sums of weighted Δ^2, square of difference between ISTD-normalized experimental data and calculated value, divided by the experimental data.
(§6) [formula] where [h+], [h−], [d+], [d−] are the concentrations of both protonated and deuterated enantiomers, k+− and k−+ are the rate constants for the enantiomerization reactions [h+] to [h−] and [h−] to [h+] respectively, kD++, kD+−, kD−+, and kD−− are the rate constants for the D/H exchange reactions [d+] or [d−] to [h+] or [h−], and kd is the rate constant for the degradation of all four compounds
(§7) [formula] where [X]ti is the concentration of either enantiomer at time ti, t1 is a time at which [X] is known, t2 is a time at which [X] is calculated, and [d[X]]t1 is the calculated value of the differential equation at time t1.

[3] = In vitro stability in CD-1 mouse plasma at 37° C. (enantiomerization, D/H exchange, degradation); type: in vitro ADME
Description: as §1, §2, §3, §4, §5, §6, §7

[4] = tested on: Human Multiple Myeloma H929 Cell Line; assay: Efficacy in human multiple myeloma H929 xenograft in female CB.17 SCID mice; type: in vivo; settings: daily oral gavage 23 days, FIG. 10; for potency/efficacy at limiting tumor growth, comparison between compounds: d− and d+ 1.5 or 15 mg/kg, h-rac 3 mg/kg
Description: Female CB.17 SCID mice (8-12 weeks of age, N=60) were administered 1×10^7 H929 tumor cells in 50% Matrigel subcutaneously in their flank (0.2 mL/mouse). Animals were returned to their cages and tumor growth was monitored. Tumor size was reported as tumor volume (Vol) calculated as Vol=½ (L*W^2), where L and W are the length and width of the tumor as measured by caliper (L>W). A pair match was performed when tumors reached an average size of 100-150 mm^3 and the animals were divided into 6 treatment groups of N=10 animals each.
Animals were treated daily by oral gavage (10 mL/kg) with vehicle, d− (1.5 or 15 mg/kg), d+ (1.5 or 15 mg/kg), or h-rac (racemic mixture of protonated enantiomers h− and h+; 3 mg/kg). The compound h-rac was administered at twice the dose of the deuterated enantiomers since it contains 50% (i.e., 1.5 mg/kg) of each enantiomer. Body weight measurements were taken daily for the first week then biweekly. Tumor sizes were measured by caliper biweekly. The study was terminated after 23 days of dosing, then all animals were euthanized.

[5] = human plasma, 37° C., fit to equations 1 to 6
[6] = human plasma, 37° C., average of values for h− and h+
[7] = mouse plasma, 37° C., fit to equations 1 to 6
[8] = mouse plasma, 37° C., average of values for h− and h+
[9] = mouse plasma, single oral gavage 15 mg/kg

With `Cc1nc2cccc(N)c2c(=O)n1C1CCC(=O)NC1=O` (single isomer, unassigned; (-)) [h−, (−)-3-(5-amino-2-methyl-4-oxoquinazolin-3(4H)-yl)-piperidine-2,6-dione, reference compound] the “share of the total exposure” value ([1]; mice, exposure to the enantiomers of the protonated molecule (h-rac dosed)) was 39%, the “k +− (enantiomerization rate constant h+ to h−)” value ([2]; human) was 0.231 h⁻¹ and the “k d (degradation rate constant)” value ([2]; human) was 2.35e-05 s⁻¹. For the same molecule, the “k −+ (enantiomerization rate constant h− to h+)” value ([2]; human) was 0.169 h⁻¹, the half-life ([2]; human, plasma, Calculated half-life t1/2, degradation d) was 8.2 h and the half-life ([2]; human, plasma, Calculated half-life t1/2, enantiomerization +−) was 3 h. The “k +− (enantiomerization rate constant h+ to h−)” value ([3]; CD-1, mouse) was 0.0722 h⁻¹, the “k d (degradation rate constant)” value ([3]; CD-1, mouse) was 1.51e-05 s⁻¹ and the “k −+ (enantiomerization rate constant h− to h+)” value ([3]; CD-1, mouse) was 0.0730 h⁻¹. It also gave a half-life ([3]; CD-1, mouse, plasma, Calculated half-life t1/2, degradation d) of 12.7 h, a half-life ([3]; CD-1, mouse, plasma, Calculated half-life t1/2, enantiomerization +−) of 9.6 h and a half-life ([3]; CD-1, mouse, plasma, Calculated half-life t1/2, enantiomerization −+) of 9.5 h.

With “3-(5-amino-2-methyl-4-oxoquinazolin-3(4H)-yl)-(3-^2H)-piperidine-2,6-dione [d-rac]” the “Calculated half-life t1/2, D/H exchange of d+ (D++ and D+−)” value ([2]; human plasma, 37° C.) was 8.3 h, the “Calculated half-life t1/2, D/H exchange of d− (D−+ and D−−)” value ([2]; human plasma, 37° C.) was 5.2 h and the “Calculated half-life t1/2, degradation d” value ([2]; human plasma, 37° C.) was 7.8 h. For the same molecule, the “Calculated half-life t1/2, enantiomerization +−” value ([2]; human plasma, 37° C.) was 2.6 h, the “Calculated half-life t1/2, enantiomerization −+” value ([2]; human plasma, 37° C.) was 3.6 h and the “k D++ (rate constant D/H exchange d+ to h+)” value [2, 5] was 2.33e-05 s⁻¹. For the same molecule, the “k D+− (rate constant D/H exchange d+ to h−)” value [2, 5] was 0 s⁻¹, the “k D−+ (rate constant D/H exchange d− to h+)” value [2, 5] was 0 s⁻¹ and the “k D−− (rate constant D/H exchange d− to h−)” value [2, 5] was 3.72e-05 s⁻¹. For the same molecule, the “k +− (enantiomerization rate constant used in analysis of d-rac)” value [2, 6] was 0.264 h⁻¹, the “k d (degradation rate constant for the enantiomers of d-rac)” value [2, 6] was 2.51e-05 s⁻¹ and the “k −+ (enantiomerization rate constant used in analysis of d-rac)” value [2, 6] was 0.195 h⁻¹. For the same molecule, the “Calculated half-life t1/2, D/H exchange of d+ (D++ and D+−)” value ([3]; mouse plasma, 37° C.) was 14.5 h, the “Calculated half-life t1/2, D/H exchange of d− (D−+ and D−−)” value ([3]; mouse plasma, 37° C.) was 12.7 h and the “Calculated half-life t1/2, degradation d” value ([3]; mouse plasma, 37° C.) was 13.0 h. For the same molecule, the “Calculated half-life t1/2, enantiomerization +−” value ([3]; mouse plasma, 37° C.) was 10.5 h, the “Calculated half-life t1/2, enantiomerization −+” value ([3]; mouse plasma, 37° C.) was 7.2 h and the “k D++ (rate constant D/H exchange d+ to h+)” value [3, 7] was 1.29e-05 s⁻¹. For the same molecule, the “k D+− (rate constant D/H exchange d+ to h−)” value [3, 7] was 3.03e-07 s⁻¹, the “k D−+ (rate constant D/H exchange d− to h+)” value [3, 7] was 4.61e-06 s⁻¹ and the “k D−− (rate constant D/H exchange d− to h−)” value [3, 7] was 1.06e-05 s⁻¹. For the same molecule, the “k +− (enantiomerization rate constant used in analysis of d-rac)” value [3, 8] was 0.0662 h⁻¹, the “k d (degradation rate constant for the enantiomers of d-rac)” value [3, 8] was 1.48e-05 s⁻¹ and the “k −+ (enantiomerization rate constant used in analysis of d-rac)” value [3, 8] was 0.0959 h⁻¹.

For `[2H]C1(n2c(C)nc3cccc(N)c3c2=O)CCC(=O)NC1=O` (single isomer, unassigned; (-)) [d−, (−)-3-(5-Amino-2-methyl-4-oxoquinazolin-3(4H)-yl)-(3-^2H)-piperidine-2,6-dione], the “t1/2, compound analyzed d−” value [1, 9] was 1.2 h, the “t1/2, compound analyzed h−” value [1, 9] was 1.2 h and the “AUC, compound analyzed d+” value [1, 9] was 898 ng·h/mL. The “AUC, compound analyzed d−” value [1, 9] was 44100 ng·h/mL, the “AUC, compound analyzed h+” value [1, 9] was 1180 ng·h/mL and the “AUC, compound analyzed h−” value [1, 9] was 6160 ng·h/mL. The “potency/efficacy at limiting tumor growth, comparison between compounds” value [4] was “more potent at limiting tumor growth at both doses than h-rac”.

In the case of `[2H]C1(n2c(C)nc3cccc(N)c3c2=O)CCC(=O)NC1=O` (single isomer, unassigned; (+)) [d+, (+)-3-(5-Amino-2-methyl-4-oxoquinazolin-3(4H)-yl)-(3-^2H)-piperidine-2,6-dione], the “t1/2, compound analyzed d+” value [1, 9] is reported as 1.1 h, the “t1/2, compound analyzed h+” value [1, 9] is reported as 1.0 h and the “AUC, compound analyzed d+” value [1, 9] is reported as 63600 ng·h/mL. The “AUC, compound analyzed d−” value [1, 9] was 661 ng·h/mL, the “AUC, compound analyzed h+” value [1, 9] was 6120 ng·h/mL and the “AUC, compound analyzed h−” value [1, 9] was 993 ng·h/mL. The “efficacy (tumor volume) by dose” value ([4]; 1.5 or 15 mg/kg) was “observed only at the highest dose” and the “potency/efficacy at limiting tumor growth, comparison between compounds” value [4] was “less efficacious than d−”.

With `Cc1nc2cccc(N)c2c(=O)n1C1CCC(=O)NC1=O` (single isomer, unassigned; (+)) [h+, (+)-3-(5-amino-2-methyl-4-oxoquinazolin-3(4H)-yl)-piperidine-2,6-dione, reference compound] the “k +− (enantiomerization rate constant h+ to h−)” value ([2]; human) was 0.297 h⁻¹, the “k d (degradation rate constant)” value ([2]; human) was 2.68e-05 s⁻¹ and the “k −+ (enantiomerization rate constant h− to h+)” value ([2]; human) was 0.220 h⁻¹. The “Calculated half-life t1/2, degradation d” value ([2]; human, plasma) was 7.2 h, the “Calculated half-life t1/2, enantiomerization +−” value ([2]; human, plasma) was 2.3 h and the half-life ([2]; human, plasma, Calculated half-life t1/2, enantiomerization −+) was 3.2 h. For the same molecule, the “k +− (enantiomerization rate constant h+ to h−)” value ([3]; CD-1, mouse) was 0.0603 h⁻¹, the “k d (degradation rate constant)” value ([3]; CD-1, mouse) was 1.45e-05 s⁻¹ and the “k −+ (enantiomerization rate constant h− to h+)” value ([3]; CD-1, mouse) was 0.119 h⁻¹. For the same molecule, the “Calculated half-life t1/2, degradation d” value ([3]; CD-1, mouse, plasma) was 13.3 h, the “Calculated half-life t1/2, enantiomerization +−” value ([3]; CD-1, mouse, plasma) was 11.5 h and the “Calculated half-life t1/2, enantiomerization −+” value ([3]; CD-1, mouse, plasma) was 5.8 h.
